Assay results taken from US20230066946A1, “1,5-DIPHENYLPYRAZOLYL-3-OXYALKYL ACIDS AND 1-PHENYL-5-THIENYLPYRAZOLYL-3-OXYALKYL ACIDS AND THE USE THEREOF FOR CONTROL OF UNWANTED PLANT GROWTH” (Bayer Aktiengesellschaft, priority 2019, published 2023).

Columns and labels:
SETVI = assay: Pre-emergence herbicidal action against SETVI; assay type: in vivo, Setaria viridis; settings: 1280 g/ha, scored visually after about 3 weeks vs untreated controls
Excerpt: (§1) Seeds of mono- and dicotyledonous weed plants are placed in plastic pots in sandy loam soil (doubly sown with one species each of mono- or dicotyledonous weed plants per pot) and covered with soil. The compounds of the invention, formulated in the form of wettable powders (WP) or as emulsion concentrates (EC), are then applied onto the surface of the covering soil as aqueous suspension or emulsion with addition of 0.5% additive at a water application rate equivalent to 600 litres per hectare. After the treatment, the pots are placed in a greenhouse and kept under good growth conditions for the trial plants. After about 3 weeks, the effect of the preparations is scored visually in comparison with untreated controls as percentages. For example, 100% activity=the plants have died, 0% activity=like control plants. [table] Tables 4.1-4.15 below show the effects of selected compounds of the general formula (I) according to Tables 1 to 3 on various harmful plants at an application rate corresponding to 1280 or 320 g/ha, which have been obtained by the aforementioned experimental method.

AMARE [1] = assay: Pre-emergence herbicidal action against AMARE; assay type: in vivo, Amaranthus retroflexus; settings: 1280 g/ha, scored visually after about 3 weeks vs untreated controls
Excerpt: as §1

STEME [2] = assay: Pre-emergence herbicidal action against STEME; assay type: in vivo, Stellaria media; settings: 1280 g/ha, scored visually after about 3 weeks vs untreated controls
Excerpt: as §1

AMARE [3] = assay: Post-emergence herbicidal action against AMARE; assay type: in vivo, Amaranthus retroflexus; settings: 1280 g/ha, visual rating about 3 weeks after treatment
Description: (§2) [table] Seeds of mono- and dicotyledonous weed plants are placed in plastic pots in sandy loam soil (twin sowing with one species each of mono- or dicotyledonous weed plants per pot), covered with soil and cultivated in a greenhouse under controlled growth conditions. 2 to 3 weeks after sowing, the test plants are treated at the one-leaf stage. The compounds of the invention, formulated in the form of wettable powders (WP) or as emulsion concentrates (EC), are applied to the green parts of the plants as aqueous suspension or emulsion with addition of 0.5% additive at a water application rate equivalent to 600 litres per hectare. After the test plants have been kept in the greenhouse under optimum growth conditions for about 3 weeks, the activity of the preparations is rated visually in comparison to untreated controls. For example, 100% activity=the plants have died, 0% activity=like control plants. Tables 5.1-5.16 below show the effects of selected compounds of the general formula (I) according to Tables 1 to 3 on various harmful plants at an application rate corresponding to 1280 or 320 g/ha, which have been obtained by the aforementioned experimental method.

MATIN = assay: Post-emergence herbicidal action against MATIN; assay type: in vivo, Matricaria inodora; settings: 1280 g/ha, visual rating about 3 weeks after treatment
Description: as §2

STEME [4] = assay: Post-emergence herbicidal action against STEME; assay type: in vivo, Stellaria media; settings: 1280 g/ha, visual rating about 3 weeks after treatment
Description: as §2

Row | Structure (SMILES) | Pre-emergence action against SETVI in % (SETVI) [%] | Pre-emergence action against AMARE in % (AMARE [1]) [%] | Pre-emergence action against STEME in % (STEME [2]) [%] | Post-emergence action against AMARE in % (AMARE [3]) [%] | Post-emergence action against MATIN in % (MATIN) [%] | Post-emergence action against STEME in % (STEME [4]) [%]
1 | CCOC(=O)COc1nn(-c2c(F)cccc2F)c(-c2ccc(F)c(F)c2)c1[N+](=O)[O-] [I-144] | 100 | 100 |  |  |  | 
2 | O=C(O)COc1nn(-c2cccc(F)c2)c(-c2ccccc2)c1Br [I-127] | 100 | 100 | 100 | 90 | 90 | 
3 | CCOC(=O)COc1nn(-c2ccc(Cl)cc2F)c(-c2ccc(F)cc2)c1Br [I-156] | 90 | 100 | 100 | 100 | 90 | 
4 | O=C(COc1nn(-c2ccc(F)cc2)c(-c2cccc(F)c2)c1Cl)NCC1CC1 [III-025] |  |  | 100 | 90 |  | 100
5 | CCN(CC)CC.O=C(O)COc1nn(-c2cccc(F)c2)c(-c2ccccc2)c1I [II-14] |  | 100 |  |  |  | 
6 | CCOC(=O)COc1nn(-c2ccc(F)cc2)c(-c2ccc(F)cc2F)c1Br [I-086] | 90 | 100 | 90 | 100 |  | 
7 | O=C(COc1nn(-c2ccc(F)cc2)c(-c2cccc(F)c2)c1Br)NC1CC1 [III-018] | 90 | 90 | 100 | 100 |  | 
8 | COC(=O)COc1nn(-c2ccc(Cl)c(Cl)c2)c(-c2ccc(F)c(F)c2)c1Cl [I-027] |  |  |  | 80 |  | 
9 | COC(=O)CNC(=O)C(C)Oc1nn(-c2ccccc2)c(-c2ccc(F)cc2)c1Br (stereo not shown) [III-056, Methyl N-(2-{[4-bromo-5-(4-fluorophenyl)-1-phenyl-1H-pyrazol-3-yl]oxy}propanoyl)glycinate] | 90 | 100 | 100 |  | 90 | 
10 | CCOC(=O)COc1nn(-c2ccc(Cl)cc2F)c(-c2ccc(F)cc2Cl)c1Br [I-155] |  | 90 | 100 |  |  | 
11 | COC(=O)COc1nn(-c2ccccc2F)c(-c2ccc([N+](=O)[O-])cc2)c1[N+](=O)[O-] [I-099] |  | 90 |  | 90 |  | 
12 | O=C(COc1nn(-c2ccccc2)c(-c2ccc(F)cc2)c1Br)OCc1ccccc1 [I-112] |  | 100 | 100 |  |  | 
13 | CCOC(=O)COc1nn(-c2ccc(Cl)cc2)c(-c2ccc(F)cc2)c1Br [I-078] | 100 | 90 |  | 100 |  | 
14 | COC(=O)COc1nn(-c2ccc(F)cc2)c(-c2cccc(F)c2)c1[N+](=O)[O-] [I-108] | 100 | 90 |  |  |  | 
15 | COC(=O)C(C)Oc1nn(-c2ccccc2)c(-c2ccccc2F)c1Cl (stereo not shown) [I-166] | 90 | 90 | 90 | 100 | 100 | 
16 | CC#CCNC(=O)COc1nn(-c2ccc(F)cc2)c(-c2cccc(F)c2)c1Br [III-017] | 100 | 100 | 100 | 100 |  | 
17 | COC(=O)COc1nn(-c2ccc(C)cc2)c(-c2cccc(F)c2)c1C#N [I-020] |  |  | 80 |  |  | 

Row | Structure (SMILES) | Pre-emergence action against SETVI in % (SETVI) [%] | Pre-emergence action against AMARE in % (AMARE [1]) [%] | Pre-emergence action against STEME in % (STEME [2]) [%] | Post-emergence action against AMARE in % (AMARE [3]) [%] | Post-emergence action against MATIN in % (MATIN) [%] | Post-emergence action against STEME in % (STEME [4]) [%]
18 | C=CCNC(=O)COc1nn(-c2ccc(F)cc2)c(-c2cccc(F)c2)c1I [III-008] |  |  | 100 |  |  | 100
19 | CCOC(=O)COc1nn(-c2ccc(Cl)cc2F)c(-c2ccc(F)cc2F)c1Br [I-150] |  |  | 100 |  |  | 100
20 | COC(=O)COc1nn(-c2ccc(F)cc2)c(-c2cccc(F)c2)c1I [I-109] |  |  | 100 | 100 |  | 90
21 | O=C(O)COc1nn(-c2cccc(F)c2)c(-c2ccccc2)c1[N+](=O)[O-] [I-129] | 100 | 100 | 100 | 100 | 100 | 
22 | COC(=O)C(C)(C)Oc1nn(-c2ccccc2)c(-c2ccc(F)cc2)c1Br [I-135] |  |  | 100 |  |  | 
23 | CCOC(=O)COc1nn(-c2ccccc2OC)c(-c2ccc(F)cc2F)c1Br [I-091] | 90 | 100 |  | 100 |  | 
24 | COC(=O)CNC(=O)COc1nn(-c2cccc(F)c2)c(-c2ccccc2)c1[N+](=O)[O-] [III-029] |  | 90 |  |  |  | 
25 | COC(=O)COc1nn(-c2ccccc2F)c(-c2ccc(F)s2)c1Cl [I-094, Methyl {[4-chloro-1-(2-fluorophenyl)-5-(5-fluoro-2-thienyl)-1H-pyrazol-3-yl]oxy}acetate] | 100 | 100 | 100 | 100 |  | 
26 | O=C(O)COc1nn(-c2ccc(F)cc2)c(-c2cccc(F)c2)c1I [I-118] | 90 | 100 |  |  |  | 
27 | O=C(O)COc1nn(-c2cccc(F)c2)c(-c2ccccc2)c1I [I-128] |  | 100 | 90 | 90 |  | 
28 | CCNC.O=C(O)COc1nn(-c2cccc(F)c2)c(-c2ccccc2)c1I [II-08] |  |  |  |  |  | 90
29 | COC(=O)COc1nn(-c2ccccc2F)c(-c2ccc(F)s2)c1Br [I-095] | 100 | 100 | 100 | 100 | 100 | 
30 | CCOC(=O)COc1nn(-c2ccccc2OC)c(-c2ccccc2)c1Br [I-092] | 100 | 100 | 100 | 100 |  | 
31 | O=C(COc1nn(-c2ccc(F)cc2)c(-c2cccc(F)c2)c1I)OCc1ccccc1 [I-124] | 100 |  | 100 |  | 90 | 
32 | CC(C)(C)N.O=C(O)COc1nn(-c2cccc(F)c2)c(-c2ccccc2)c1I [II-09] |  | 90 | 100 |  |  | 100
33 | CCCN(CCC)CCC.O=C(O)COc1nn(-c2cccc(F)c2)c(-c2ccccc2)c1I [II-07] |  | 90 | 90 |  |  | 
34 | CCCN.O=C(O)COc1nn(-c2cccc(F)c2)c(-c2ccccc2)c1I [II-06] |  | 90 | 90 |  |  | 100
